In patent US20260091147A1, “METHOD FOR DETECTING INNATE IMMUNE ACTION IN VIVO USING GPR84-PET” (The Board of Trustees of the Leland Standford Junior …, priority 2023, published 2026):

Columns and labels:
[1] = molecular target: T1, synaptic vesicle glycoprotein 2A receptor (Mus musculus, UniProt Q9JIS5); settings: cited from earlier work
T1 construct: host or cells: healthy mouse brain in vivo

[2] = molecular target: human GPR84-Gαi2 fusion protein (Homo sapiens, UniProt Q9NQS5); assay: [3H]G9543 competition binding assay, membranes from Flp-In TREx 293 cells; settings: competition with [3H]G9543; read-out: Kd (affinity for GPR84)
Chain of human GPR84-Gαi2 fusion protein (Q9NQS5 whole entry, the tested form may be a part): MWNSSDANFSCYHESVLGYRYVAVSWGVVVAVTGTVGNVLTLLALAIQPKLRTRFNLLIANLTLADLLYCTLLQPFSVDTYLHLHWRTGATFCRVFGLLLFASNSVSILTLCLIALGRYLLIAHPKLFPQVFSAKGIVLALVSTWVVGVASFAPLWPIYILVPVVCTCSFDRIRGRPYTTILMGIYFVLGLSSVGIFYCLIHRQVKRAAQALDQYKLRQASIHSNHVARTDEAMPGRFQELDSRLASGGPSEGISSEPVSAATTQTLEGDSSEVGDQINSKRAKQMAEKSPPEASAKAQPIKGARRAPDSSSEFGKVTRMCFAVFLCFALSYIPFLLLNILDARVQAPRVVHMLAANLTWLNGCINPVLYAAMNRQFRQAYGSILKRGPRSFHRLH
Procedure: To determine KD of GLPG38, a competitive binding assay was performed using a membrane preparation from cells expressing GPR84-Gi in addition to [^3H]G9543, a known GPR84 antagonist. [^11C]GLPG38 was then radiosynthesized via [^11C]methylation of desmethyl precursor using [^11C]methyl iodide. […] For animal studies, sepsis was induced in female C57BL/6J mice via intraperitoneal injection of lipopolysaccharide (LPS, 10 mg/kg); vehicle-treated mice were injected with saline alone. Dynamic 60 min PET/CT imaging was performed 24 hr following LPS-administration using [^11C]GLPG38. Subsequently, mice were perfused with PBS to remove blood, and radioactive signal was assessed in CNS and peripheral tissues via gamma counting. Ex vivo autoradiography of sagittal mouse brain sections was conducted to obtain high resolution images of [^11C]GLPG38 binding. To investigate alterations in GPR84 mRNA expression, quantitative polymerase-chain reaction was performed using mouse brain tissue and human monocyte-derived macrophage cells stimulated with LPS 24 hr prior to RNA extraction.

[3] = molecular target: T2, postsynaptic dopamine D2 receptors (Rattus norvegicus, UniProt P61169); settings: healthy rodents; cited from earlier work
T2 construct: host or cells: healthy rodent brain in vivo
T2 sequence (P61169 whole entry): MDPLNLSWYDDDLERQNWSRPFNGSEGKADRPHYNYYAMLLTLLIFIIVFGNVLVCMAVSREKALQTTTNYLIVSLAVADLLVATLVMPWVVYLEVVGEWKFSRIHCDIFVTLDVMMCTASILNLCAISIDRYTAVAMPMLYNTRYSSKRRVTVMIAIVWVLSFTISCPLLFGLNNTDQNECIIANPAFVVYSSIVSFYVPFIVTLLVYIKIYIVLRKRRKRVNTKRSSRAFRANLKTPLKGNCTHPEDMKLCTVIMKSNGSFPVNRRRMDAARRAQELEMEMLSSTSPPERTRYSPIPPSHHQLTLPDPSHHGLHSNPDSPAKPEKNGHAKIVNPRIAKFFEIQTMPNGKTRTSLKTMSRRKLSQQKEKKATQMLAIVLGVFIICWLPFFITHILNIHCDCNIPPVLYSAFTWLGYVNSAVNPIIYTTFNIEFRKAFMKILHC

[4] = Dynamic 60 min PET/CT of healthy mice, whole-brain time activity curve; type: in vivo, mouse; settings: healthy mice
Text: A transmission scan was acquired to correct for attenuation during image reconstruction. Following PET imaging, mice were transferred to a SOFIE GNEXT PET/CT for CT acquisition. PET/CT data were co-registered and analyzed using Inveon Research Workplace software to generate images and quantify radiotracer uptake in regions of interest (ROIs). A 3D ROI was manually defined for the whole brain using CT data as anatomical reference, then applied to the full dynamic data set to generate a time activity curve (TAC).
(§1) The count densities were averaged for all volumes of interest at each time point to obtain a time-activity curve (TAC). The TACs were normalized to injected dose, as measured by a CRC-15 PET dose calibrator (Capintec Inc.), and expressed as % injected dose per gram (% ID/g), assuming 1 g/mL. CT was performed in GNEXT depth of interaction (DOI) dual-layer detector system. Scintica VivoQuant software was used to visualize radiotracer uptake and define the 3D volumes of interest. 3D maximum intensity projection (MIP) PET/CT images were created using IRW software.
On days 15-16 after EAE induction, mice were catheterized and placed on the 4-mouse scanning bed of the Sofie GNEXT PET/CT scanner.

GPR84 [5] = molecular target: T3, GPR84 (Mus musculus, UniProt Q8CIM5); assay: Dynamic PET/CT of brain in LPS-induced systemic inflammation vs saline, with or without GLPG1205 block; type: in vivo; settings: LPS 5 mg/kg
T3 construct: tissue Jackson Laboratories; host or cells: female C57BL/6J mice (LPS, saline, EAE or naive): brain, spinal cord and peripheral organs
T3 sequence (Q8CIM5 whole entry): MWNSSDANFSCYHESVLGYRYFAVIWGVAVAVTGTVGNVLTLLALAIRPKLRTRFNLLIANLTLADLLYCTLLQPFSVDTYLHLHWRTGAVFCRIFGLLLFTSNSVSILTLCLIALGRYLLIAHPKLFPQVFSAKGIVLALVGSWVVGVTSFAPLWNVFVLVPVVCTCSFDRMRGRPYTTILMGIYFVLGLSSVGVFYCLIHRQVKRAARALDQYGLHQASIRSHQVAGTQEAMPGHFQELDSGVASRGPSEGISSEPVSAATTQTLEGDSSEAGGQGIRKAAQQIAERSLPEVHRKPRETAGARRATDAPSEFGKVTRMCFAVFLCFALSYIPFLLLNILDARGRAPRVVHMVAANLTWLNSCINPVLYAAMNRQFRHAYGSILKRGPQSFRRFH
Procedure: (§2) To determine KD of GLPG38, a competitive binding assay was performed using a membrane preparation from cells expressing GPR84-Gi in addition to [^3H]G9543, a known GPR84 antagonist. [^11C]GLPG38 was then radiosynthesized via [^11C]methylation of desmethyl precursor using [^11C]methyl iodide. […] Dynamic 60 min PET/CT imaging was performed 24 hr following LPS-administration using [^11C]GLPG38. Subsequently, mice were perfused with PBS to remove blood, and radioactive signal was assessed in CNS and peripheral tissues via gamma counting. Ex vivo autoradiography of sagittal mouse brain sections was conducted to obtain high resolution images of [^11C]GLPG38 binding. To investigate alterations in GPR84 mRNA expression, quantitative polymerase-chain reaction was performed using mouse brain tissue and human monocyte-derived macrophage cells stimulated with LPS 24 hr prior to RNA extraction.
as §1
A range of doses (0.65, 0.75, and 0.90 mg/kg) of GLPG1205 were used to investigate whether the blocking was dose-dependent. […] GLPG1205 was injected intra-venously 10 min prior to radiotracer injection (n=4).

GPR84 [6] = molecular target: T3, GPR84; assay: Ex vivo biodistribution (gamma counting) of GPR84 tracer in LPS- vs saline-treated mice; settings: 20 min post injection
Procedure: FIGS. 11A-11B show ex vivo biodistribution and autoradiography. […] At 20 min postinjection, animals were perfused with saline and tissues were collected, weighed, and gamma-counted. […] Statistical analysis was performed using “Unpaired t test with Welch correction”, *=P<0.05. […] Cb=cerebellum, Ctx=cortex, Str=striatum, H=hippocampus, Mb=midbrain, Ob=olfactory bulb, and BS=brain stem.
as §2

[7] = Procedure: In vivo stability assay. […] Mice were perfused with PBS buffer (20 mL) under deep anesthesia (5 min, 20 min). The whole brain and liver lobe were removed from mouse place in two separate […] microcentrifuge tubes containing 500 μL acetonitrile, homogenized sample and placed on ice. The well-homogenized samples were transferred to two 1.5 mL microcentrifuge tubes, centrifuged at 9,400 g for 4 min at room temperature. Supernatants were transferred into gamma counting tubes; the pellets were transferred into separate tubes. All supernatants and pellets were counted using gamma counter to measure extraction efficiency. Each of the supernatant (150-200 μL) was transferred into HPLC vials with the inserts and injected into HPLC for radio-metabolic analysis.
At 5 and 20 min post-tracer injection, the analysis of the whole brain and liver was performed using analytical HPLC to assess the presence of potential radiometabolites.

GPR84 [8] = molecular target: T3, GPR84; assay: Ex vivo autoradiography of brain sections from LPS-treated mice; type: in vivo; settings: GLPG1205 5 mg/kg ([11C]GLPG38) or 1 mg/kg (11C-MGX-10S)
Procedure: To determine KD of GLPG38, a competitive binding assay was performed using a membrane preparation from cells expressing GPR84-Gi in addition to [^3H]G9543, a known GPR84 antagonist. [^11C]GLPG38 was then radiosynthesized via [^11C]methylation of desmethyl precursor using [^11C]methyl iodide. Binding specificity of [^11C]GLPG38 was assessed using human GPR84-stably-expressing human embryonic kidney cells (HEK-293) versus control HEK-293 cells. For animal studies, sepsis was induced in female C57BL/6J mice via intraperitoneal injection of lipopolysaccharide (LPS, 10 mg/kg); vehicle-treated mice were injected with saline alone. Dynamic 60 min PET/CT imaging was performed 24 hr following LPS-administration using [^11C]GLPG38. Subsequently, mice were perfused with PBS to remove blood, and radioactive signal was assessed in CNS and peripheral tissues via gamma counting. Ex vivo autoradiography of sagittal mouse brain sections was conducted to obtain high resolution images of [^11C]GLPG38 binding. To investigate alterations in GPR84 mRNA expression, quantitative polymerase-chain reaction was performed using mouse brain tissue and human monocyte-derived macrophage cells stimulated with LPS 24 hr prior to RNA extraction.
Ex vivo Audoradiography Confirms ^11C-MGX-10S Specificity.

CSF1R = molecular target: T4, CSF1R (Mus musculus, UniProt P09581); settings: LPS 10 mg/kg; cited from earlier work
T4 construct: host or cells: mouse brain in vivo, LPS 10 mg/kg
T4 sequence (P09581 20-977): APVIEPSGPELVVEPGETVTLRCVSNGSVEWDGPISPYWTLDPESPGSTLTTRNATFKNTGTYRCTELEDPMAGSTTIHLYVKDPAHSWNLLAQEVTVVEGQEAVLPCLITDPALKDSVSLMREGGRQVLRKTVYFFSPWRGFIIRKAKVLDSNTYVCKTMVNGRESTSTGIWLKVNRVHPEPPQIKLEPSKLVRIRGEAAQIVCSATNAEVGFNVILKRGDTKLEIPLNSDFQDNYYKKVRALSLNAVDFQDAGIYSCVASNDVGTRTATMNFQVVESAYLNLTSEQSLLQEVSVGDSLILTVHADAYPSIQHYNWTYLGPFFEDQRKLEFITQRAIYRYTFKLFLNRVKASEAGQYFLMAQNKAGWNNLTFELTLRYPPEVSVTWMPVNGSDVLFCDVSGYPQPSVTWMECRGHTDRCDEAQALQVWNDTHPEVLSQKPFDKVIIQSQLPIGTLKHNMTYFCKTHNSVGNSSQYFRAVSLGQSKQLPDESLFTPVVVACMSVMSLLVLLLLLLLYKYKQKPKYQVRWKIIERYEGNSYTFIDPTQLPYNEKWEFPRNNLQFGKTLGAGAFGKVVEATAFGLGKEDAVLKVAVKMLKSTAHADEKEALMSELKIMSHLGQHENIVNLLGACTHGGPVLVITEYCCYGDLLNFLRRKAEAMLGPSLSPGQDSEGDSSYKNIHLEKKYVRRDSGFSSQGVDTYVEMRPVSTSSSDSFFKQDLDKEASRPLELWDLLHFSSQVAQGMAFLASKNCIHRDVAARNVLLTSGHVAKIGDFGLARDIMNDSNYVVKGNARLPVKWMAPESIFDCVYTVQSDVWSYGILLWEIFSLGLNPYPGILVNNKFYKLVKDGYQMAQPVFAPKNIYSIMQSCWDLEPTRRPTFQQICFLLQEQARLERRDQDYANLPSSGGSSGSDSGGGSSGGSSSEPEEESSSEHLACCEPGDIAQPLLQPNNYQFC

[9] = molecular target: T5, purinergic receptor subtype 7 (P2×7) (Mus musculus, UniProt Q9Z1M0); settings: LPS 5 mg/kg; cited from earlier work
T5 construct: host or cells: mouse brain in vivo, LPS 5 mg/kg
T5 sequence (Q9Z1M0 1-595): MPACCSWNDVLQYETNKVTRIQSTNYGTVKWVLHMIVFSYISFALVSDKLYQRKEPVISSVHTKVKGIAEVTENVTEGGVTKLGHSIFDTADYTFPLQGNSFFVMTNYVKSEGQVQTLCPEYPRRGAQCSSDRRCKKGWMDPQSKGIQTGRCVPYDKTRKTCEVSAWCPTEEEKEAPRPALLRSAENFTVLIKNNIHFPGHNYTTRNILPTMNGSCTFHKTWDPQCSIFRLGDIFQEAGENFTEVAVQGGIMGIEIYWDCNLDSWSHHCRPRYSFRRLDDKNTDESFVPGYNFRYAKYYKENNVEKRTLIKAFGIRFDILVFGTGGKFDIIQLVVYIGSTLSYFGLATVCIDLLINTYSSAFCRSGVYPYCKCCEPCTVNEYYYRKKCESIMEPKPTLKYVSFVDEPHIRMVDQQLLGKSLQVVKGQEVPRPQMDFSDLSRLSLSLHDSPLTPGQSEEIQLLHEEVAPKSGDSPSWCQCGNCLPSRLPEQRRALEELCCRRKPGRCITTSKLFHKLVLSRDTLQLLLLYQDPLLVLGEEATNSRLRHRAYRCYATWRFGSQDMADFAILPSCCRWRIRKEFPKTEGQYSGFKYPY

T1 sequence (Q9JIS5 whole entry): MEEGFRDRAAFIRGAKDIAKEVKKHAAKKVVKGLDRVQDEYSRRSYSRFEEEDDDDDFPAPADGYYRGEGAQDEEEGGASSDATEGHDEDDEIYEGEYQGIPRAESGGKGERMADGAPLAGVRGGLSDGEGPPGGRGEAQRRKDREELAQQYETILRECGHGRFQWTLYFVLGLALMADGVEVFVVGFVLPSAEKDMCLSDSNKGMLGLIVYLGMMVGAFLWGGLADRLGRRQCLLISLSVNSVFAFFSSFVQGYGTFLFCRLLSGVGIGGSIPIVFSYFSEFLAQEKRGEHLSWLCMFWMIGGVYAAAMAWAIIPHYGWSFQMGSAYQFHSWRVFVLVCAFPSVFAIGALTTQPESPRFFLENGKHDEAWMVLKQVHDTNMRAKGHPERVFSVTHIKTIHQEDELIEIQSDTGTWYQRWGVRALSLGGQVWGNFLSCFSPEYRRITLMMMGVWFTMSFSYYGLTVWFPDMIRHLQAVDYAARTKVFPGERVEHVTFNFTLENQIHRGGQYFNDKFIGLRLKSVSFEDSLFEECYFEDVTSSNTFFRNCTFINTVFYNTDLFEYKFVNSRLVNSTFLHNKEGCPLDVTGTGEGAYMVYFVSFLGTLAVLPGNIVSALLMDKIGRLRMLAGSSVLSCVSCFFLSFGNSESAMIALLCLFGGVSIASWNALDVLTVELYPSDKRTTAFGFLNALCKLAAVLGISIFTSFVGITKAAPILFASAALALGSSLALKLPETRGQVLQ

SMILES: [11CH3]c1cnccc1CN1C[C@@H](c2cc(F)c(F)c(F)c2)CC1=O [^11C-UCBJ]
- Brain 15 min/90 min ratio ([1]; healthy mouse brain): ~3
- time of maximum brain uptake ([1]; healthy mouse): 15 min

SMILES: COc1cc2c(cc1C)-c1c(C)c(OC[C@@H]3COCCO3)cc(=O)n1CC2 [GLPG38]
- Kd [2]: 11.8 nM

SMILES: CCN1CCC[C@H]1CNC(=O)c1c(O)c(Cl)cc(Cl)c1O[11CH3] (racemic) [^11C-Raclopride]
- Brain 5 min/60 min ratio [3]: ~2
- time of maximum brain uptake [3]: 5 min

SMILES: [11CH3]Oc1ccc2c(c1)CCn1c-2cc(OC[C@@H]2COCCO2)nc1=O [^11C-MGX-10S]
- time of peak brain uptake [4]: ≤ 22.5 s
- whole-brain uptake after washout, end of 60 min scan [4]: 1.89±0.35 % ID/g
- peak whole-brain uptake ([4]; 60 min dynamic scan): 5.90±0.89 % ID/g
- reduction of brain PET signal in LPS mice by GLPG1205 at end of scan (GPR84 [5]; GLPG1205 0.65 mg/kg i.v. 10 min before tracer): 38.50%
- increase in whole-brain radiotracer uptake, LPS vs saline, 30-60 min integration (GPR84 [5]): approximately 39.27%
- higher brain accumulation in LPS vs saline-treated mice at end of scan (GPR84 [5]; 60 min dynamic PET): 42.46%
- adipose tissue uptake, saline-treated mice (GPR84 [6]): 0.63±0.15 % ID/g
- kidney uptake, saline-treated mice (GPR84 [6]): 5.32±3.01 % ID/gram
- liver uptake, saline-treated mice (GPR84 [6]): 4.51±0.15 % ID/gram
- brain uptake, saline-treated mice (GPR84 [6]; perfused): 0.45±0.06 % ID/g
- adipose tissue uptake, LPS-treated mice (GPR84 [6]; LPS 5 mg/kg): 1.16±0.50 % ID/g
- kidney uptake, LPS-treated mice (GPR84 [6]; LPS 5 mg/kg): 8.73±3.18 % ID/gram
- liver uptake, LPS-treated mice (GPR84 [6]; LPS 5 mg/kg): 7.08±1.27 % ID/gram
- brain uptake, LPS-treated mice (GPR84 [6]; LPS 5 mg/kg, perfused): 0.84±0.21 % ID/gram
- radiometabolite M1 in brain at 20 min post injection ([7]; HPLC): 3%
- radiometabolite M1 in liver at 20 min post injection ([7]; HPLC): 10%
- intact radiotracer in liver at 20 min post injection ([7]; LPS-treated mice): 90%
- intact radiotracer in liver, initial (5 min) ([7]; LPS-treated mice): 100%
- intact radiotracer in brain at 5 min post injection ([7]; LPS-treated mice, n=3): 100%
- intact radiotracer in brain at 20 min post injection ([7]; LPS-treated mice, n=3): 97%
- tracer binding in LPS brain sections after pre-blocking with GLPG1205 (GPR84 [8]): dramatic reduction

SMILES: CN1CCN(c2ccc(NC(=O)c3ccc(C#N)o3)c(N3CCCCC3)c2)CC1 [^11C-CPPC, [11C]5-Cyano-N-(4-(4-Methylpiperazin-1-YI)-2-(Piperidin-1-YI)Phenyl)Furan-2-Carboxamide]
- higher binding in mouse brain, LPS vs control animal (CSF1R): 55%

SMILES: [11CH3]N1C(=O)CC[C@H]1C(=O)NCc1cccc(C(F)(F)F)c1Cl [^11C-GSK1482160]
- fold higher binding in brain, LPS vs saline-treated mice [9]: 3.2 fold
